Measured values as given in PMC3285636, “Identification by Virtual Screening and In Vitro Testing of Human DOPA Decarboxylase Inhibitors” (PLoS ONE, 2012).

Tests used:
[1] = biological target: T1, human DDC (Homo sapiens, UniProt P20711); test: Assay of the inhibitory activity: spectrophotometric measurement of dopamine production by DDC; format: biochemical; details: for IC50: 50 nM enzyme, 0.1 mM L-Dopa, 10 µM PLP, pH 7.4, 25°C, 9 concentrations in duplicate, read-out: IC50; for Ki: competitive inhibition, Table 4, third screening; for BE (binding efficiency): binding energy per unit of mass, from Ki and molecular weight in kDa
T1 construct: made in house
T1 sequence (P20711 1-480): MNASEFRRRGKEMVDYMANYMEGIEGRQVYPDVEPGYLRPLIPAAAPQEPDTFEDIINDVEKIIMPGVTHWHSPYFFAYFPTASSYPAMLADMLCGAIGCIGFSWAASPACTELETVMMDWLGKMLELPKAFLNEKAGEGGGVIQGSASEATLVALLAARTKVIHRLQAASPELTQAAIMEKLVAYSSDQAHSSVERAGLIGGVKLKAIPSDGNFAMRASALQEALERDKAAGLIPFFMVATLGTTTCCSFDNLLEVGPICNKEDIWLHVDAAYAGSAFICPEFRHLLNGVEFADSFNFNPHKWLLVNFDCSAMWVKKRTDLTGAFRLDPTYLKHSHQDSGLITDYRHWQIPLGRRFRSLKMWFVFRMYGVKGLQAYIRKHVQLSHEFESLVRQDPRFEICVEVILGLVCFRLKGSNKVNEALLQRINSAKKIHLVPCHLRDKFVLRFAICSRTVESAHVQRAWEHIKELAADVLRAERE
Description: DDC activity was determined by measuring the production of dopamine with a spectrophotometric assay outlined by Sherald et al. and modified by Charteris and John. The reaction was carried out in 0.1 M potassium phosphate buffer pH 7.4 at 25°C for 1 min and stopped by inactivation of the enzyme at 100°C for 90 sec. The inhibitory assay was performed by measuring the decarboxylase activity of DDC with 50 nM enzyme, 0.1 mM L-Dopa, and 10 µM PLP in the presence and in the absence of a fixed amount of each compound. Various amounts of dimethyl sulphoxyde (DMSO) were necessary to solubilize the compounds in 100 mM potassium phosphate buffer, pH 7.4. […] Compounds were evaluated at 9 concentrations, and each in duplicate. IC50 values were derived by nolinear regression analysis. The related inhibition type of the compounds on human DDC was identified from Lineweaver–Burk plots, and Ki and/or Ki′ values for the inhibitors tested were calculated by the software Origin 7.0.

[2] = biological target: T1, human DDC; test: Enzyme-ligand equilibrium dissociation constant from visible CD signal changes of DDC; format: binding; details: change of 420 nm or 335 nm CD band, 100 mM potassium phosphate pH 7.4
Description: The equilibrium dissociation constant for each tested compound from DDC was determined by monitoring the decrease in the 420 nm CD signal of DDC (7 µM) in the presence of various ligand concentrations in 100 mM potassium phosphate buffer, pH 7.4. In any case, the maximun DMSO concentration in the mixture was kept lower than 1% (v/v). The KD values were obtained from the fitting of the data to the equation [drawing 3] where [E]t and [L]t represent the total concentrations of DDC dimer and ligand, respectively, Y refers to the visible CD signal change at 420 nm at the ligand concentration [L], and Ymax refers to the CD signal when all enzyme molecules are complexed with the ligand. CD measurements were performed with a Jasco J-710 spectropolarimeter using quartz cuvettes with 1 cm path length.

[3] = system: pig kidney DDC; details: cited from earlier work
[4] = design: method as in PMID 580398; details: animals and humans; cited from earlier work

| IC50 [1] | Ki [1] | BE (binding efficiency) [1] | Kd [2] | Compound | DDC inhibition in words [3] | Metabolism before reaching the arterial blood [4] |
| --- | --- | --- | --- | --- | --- | --- |
| 5200 ± 400 nM | 2000 ± 200 nM | 17,5 | 2700 ± 500 nM | Cc1ccc(-c2nnc(S)n2/N=C/c2ccc(O)c(O)c2)cc1 [Compound 42] |  |  |
| 3800 ± 600 nM | 1900 ± 100 nM | 17,5 | 2800 ± 500 nM | Cc1cccc(-c2nnc(S)n2/N=C/c2ccc(O)c(O)c2)c1 [Compound 43] |  |  |
| 6200 ± 300 nM | 2000 ± 100 nM | 16,7 | 1500 ± 300 nM | COc1cccc(-c2nnc(S)n2/N=C/c2ccc(O)c(O)c2)c1 [Compound 45] |  |  |
|  |  |  |  | NC(CO)C(=O)NNCc1ccc(O)c(O)c1O (stereo not shown) [benserazide, trihydroxybenzylhydrazine seryl derivative] | not a powerful DDC inhibitor | completely metabolized before it reaches the arterial blood |
|  |  |  |  | C[C@@](Cc1ccc(O)c(O)c1)(NN)C(=O)O [carbidopa, L-α-methyl-α-hydrazino-3,4-dihydroxyphenylpropionic acid] | powerful irreversible DDC inhibitors |  |
|  |  |  |  | NNCc1ccc(O)c(O)c1O [trihydroxybenzylhydrazine] | powerful irreversible DDC inhibitors |  |
